Results: patent publication US5594033A, “Secoaporphine compound on arrhythmia” (National Science Council, priority 1993, dated 1997)
Like-named read-outs stand apart in the source and are kept apart here.

How the values were obtained:
[1] = tested on: myocyte action potential; assay: Action potential of myocytes, single cell current clamp; type: cell-based, rat
Source text: (§1) Ventricular cells isolated from rats and guinea pigs were placed in a chamber mounted on an inverted microscope, the effects of the test compounds on the action potential and the membrane current were studied by single cell current clamp and voltage clamp technique.

[2] = tested on: calcium current (ICa) of rat ventricle cell; assay: Calcium inward current (ICa), voltage clamp; type: cell-based
Source text: as §1

[3] = tested on: sodium current (INa), sodium channel; assay: Sodium inward current (INa), voltage clamp; type: cell-based, rat; conditions: for V1/2 of potential-dependent steady state inactivation of sodium current: control -60.9 mV
Source text: as §1

[4] = tested on: delayed rectifier (IK) in guinea pig ventricular cell; assay: Delayed rectifier potassium current (IK), voltage clamp; type: cell-based; conditions: Cavia porcellus, guinea pig ventricle cell, read-out: Degree of inhibition of IK
Source text: as §1

[5] = tested on: transient outward current (Ito) in rat ventricular cell; assay: Transient outward current (Ito), voltage clamp; type: cell-based; conditions: for inhibition at 6 µM: Rattus norvegicus, read-out: Ito
Source text: as §1

[6] = tested on: rat right atria, left atria and right ventricular strips; assay: Contractile force and heart rate of isolated rat atria and right ventricle; conditions: n = 6, mean ± S.E.M.
Experimental: Method: After anesthetizing rats with pentobarbital, the heart was taken out, both the atrium and the right ventricle were separately placed in 10 ml of Tyrode solution. The spontaneous contraction of the right atrium was recorded. The contraction of the left atrium and the right ventricle was driven by stimulation at a frquency of twice per second.

[7] = tested on: guinea pig left atrium treated with 0.6 μM ouabain; assay: Ouabain induced arrhythmia in guinea pig left atria; conditions: for minimal effective concentration: Cavia porcellus, read-out: Concentration that suppressed the ouabain-induced arrhythmia
Experimental: The left atrium of guinea pigs was first treated with 0.6 μM of ouabain and the contractile force was monitored.

C=CCN(C)CCc1cc(O)c(OC)c2c1ccc1cc(O)c(OC)cc12 [compound 1, N-allylsecoboldine]
Prolongation of the myocyte action potential ([1]; 1 μM): prolongation of the myocyte action potential was seen
Duration of the action potential (prolonged to) ([1]; 3 μM, driven at 0.2 Hz): five
Action potential plateau ([1]; concentration not given, FIG. 4): increased it
Inhibitory effect on calcium current ([2]; 3 μM): did not show any inhibitory effect
activity at 12 µM ([2]; 12 μM, added in cumulative manner, rat ventricle cell, read-out: Calcium current (ICa), % of control): 71%
inhibition at 12 µM ([2]; Rattus norvegicus, 0.1 h, 12 μM, non-treated cell retained 79% at 6 minutes, read-out: Actual degree of inhibition in calcium current, corrected for spontaneous rundown): 9%
V1/2 of potential-dependent steady state inactivation of sodium current ([3]; 3 μM): -70.8 mV
V1/2 of potential-dependent steady state inactivation of sodium current ([3]; 9 μM): -85.9 mV
Sodium current, % of control ([3]; 0.9 to 1.2 μM, guinea pig atrial cell or rat ventricle cell): 25 % of control
inhibition at 1 µM [4]: 20 to 30%
inhibition at 3 µM ([4]; 3 μM): 50 to 60%
inhibition at 9 µM ([4]; 9 μM): 70 to 80%
Shift of the potential-dependent inactivation curve of Ito ([5]; FIG. 6, 0.6 μM): to the right
activity at 9 µM ([6]; left atria driven at 2 Hz, read-out: Contractile tension (%)): 126 ± 6.3%
activity at 9 µM ([6]; right atria, spontaneous beating rate, read-out: H. R. (%)): 58.5 ± 3.4%
activity at 9 µM ([6]; right atria, spontaneous contraction, read-out: Contractile tension (%)): 164 ± 14%
activity at 9 µM ([6]; right ventricle strips driven at 2 Hz, read-out: Contractile tension (%)): 126 ± 7.3%

C=CCN(C)CCc1cc(O)c(OC)c2c1ccc1cc(OC)c(OC)cc12 [compound 3, N-allylsecopredicentrine]
minimal effective concentration [7]: 30 µM

C=CCN(C)CCc1cc(OC)c(OC)c2c1ccc1cc(OC)c(OC)cc12 [compound 4, N-allylsecoglaucine]
Arrhythmia induced by Ouabain: effect on rhythm ([7]; FIG. 12, ouabain 0.6 μM): conversion to normal paced rhythm
Effect on the myocyte action potential ([1]; compared with N-allylsecoboldine): very similar effect on the myocyte action potential as N-allylsecoboldine

COc1cc2c(ccc3c(CCN(C)Cc4ccccc4)cc(O)c(OC)c32)cc1O [compound 5, N-benzylsecoboldine]
inhibition at 1 µM [4]: 30%
Inhibitory effect on transient outward current (Ito) versus quinidine ([5]; 3 μM, rat ventricular cell): more profound inhibitory effect

COc1cc2ccc3c(CCN(C)C)cc(OC)c(OC)c3c2cc1OC [compound 8, N-methylsecoglaucine]
inhibition at 6 µM [5]: 70%

COc1cc2ccc3c(CCN(C)C)cc(O)c(OC)c3c2cc1OC [compound 9, N-methylsecopredicentrine]
inhibition at 6 µM [5]: 60%

COc1cc2c(ccc3c(CCN(C)C#N)cc(O)c(OC)c32)cc1O [compound 26, N-cyanosecoboldine]
inhibition at 6 µM [5]: 80%

CCN(CC)CC(=O)Nc1c(C)cccc1C [lidocaine, reference compound]
minimal effective concentration ([7]; guinea pig atrium, 0.6 μM ouabain): ≥ 30 µM

C=C[C@H]1C[N@@]2CC[C@H]1C[C@@H]2[C@@H](O)c1ccnc2ccc(OC)cc12 [quinidine, reference compound]
Action potential plateau ([1]; 30 MM): decreased action potential plateau
inhibition at 3 µM ([5]; 3 μM, rat ventricular cell, read-out: Reduction of Ito): ~60%
